Experimental data from patent US20160362432A1 (priority 2014, published 2016).
pIC50: −log10 of the molar value.

Biological target: T1, Human factor D (Homo sapiens, UniProt P00746)
T1 construct: purified from human serum; purchased Complement Technology, Inc; host or cells: human serum (natural source)
Assay: biochemical

T1 sequence (P00746 26-253): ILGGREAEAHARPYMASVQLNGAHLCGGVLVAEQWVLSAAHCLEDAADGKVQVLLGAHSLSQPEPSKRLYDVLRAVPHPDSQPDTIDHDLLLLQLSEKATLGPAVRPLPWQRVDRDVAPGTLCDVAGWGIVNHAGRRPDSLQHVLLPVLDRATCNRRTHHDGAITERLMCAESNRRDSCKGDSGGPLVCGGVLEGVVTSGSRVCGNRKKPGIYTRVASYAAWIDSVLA

**Q.** `CCOP(=O)(OCC)c1ccc2c(C(C)=O)cn(CC(=O)N3[C@@H]4CCC[C@@H]4C[C@H]3C(=O)NCc3cccc(Cl)c3F)c2c1` [Compound 5, diethyl 3-acetyl-1-(2-((2S,3aR,6aR)-2-(3-chloro-2-fluorobenzylcarbamoyl)hexahydrocyclopenta [b]pyrrol-1(2H)-yl)-2-oxoethyl)-1H-indol-6-ylphosphonate] was tested. Which pIC50 did it give?
**A.** 5.00 to 6.00
